The test system of series [1] is Digitaria ciliaris. The series is described as follows: Herbicidal activity against Digitaria ciliaris assessed as killing at 2 kg/ha. The series is classed as functional.
Series [2] relates to Echinochloa crus-galli. Put plainly: Herbicidal activity against Echinochloa crus-galli (barnyard grass) assessed as killing at 2 kg/ha. It is filed as functional.
In series [3] the test system is Gossypium hirsutum. The series is described as follows: Toxicity in Gossypium hirsutum (cotton) assessed as killing at 1 kg/ha by crop selectivity assay. It is filed as organism-based. To be noted: in vivo.
Series [4] relates to Glycine max. Put plainly: Toxicity in Glycine max (soybean) assessed as killing at 1 kg/ha by crop selectivity assay. The series is classed as organism-based. To be noted: in vivo.
For series [5], the system named is Amaranthus viridis. Put plainly: Herbicidal activity against Amaranthus viridis assessed as killing at 1 kg/ha. The series is classed as functional.
Series [6] deals with Digitaria ciliaris. The series is described as follows: Herbicidal activity against Digitaria ciliaris assessed as killing at 1 kg/ha. It is filed as functional.
The test system of series [7] is Persicaria lapathifolia. The series is described as follows: Herbicidal activity against Persicaria lapathifolia assessed as killing at 1 kg/ha. It is filed as functional.
Series [8] relates to Echinochloa crus-galli. Put plainly: Herbicidal activity against Echinochloa crus-galli (barnyard grass) assessed as killing at 1 kg/ha. The series is classed as functional.
Series [9] has as its system Gossypium hirsutum. The series is described as follows: Toxicity in Gossypium hirsutum (cotton) assessed as killing at 2 kg/ha by crop selectivity assay. It is filed as organism-based. The note with it: in vivo.
Series [10] relates to Triticum aestivum. Put plainly: Toxicity in Triticum aestivum (wheat) plant assessed as killing at 2 kg/ha by crop selectivity assay. It is filed as organism-based. To be noted: in vivo.
For series [11], the system named is Glycine max. Put plainly: Toxicity in Glycine max (soybean) assessed as killing at 2 kg/ha by crop selectivity assay. It is filed as organism-based. The note with it: in vivo.
Series [12] has as its system Amaranthus viridis. Put plainly: Herbicidal activity against Amaranthus viridis assessed as killing at 2 kg/ha. It is filed as functional.
In series [13] the test system is Persicaria lapathifolia. Put plainly: Herbicidal activity against Persicaria lapathifolia assessed as killing at 2 kg/ha. The series is classed as functional.
The subject of series [14] is Triticum aestivum. The series is described as follows: Toxicity in Triticum aestivum (wheat) plant assessed as killing at 1 kg/ha by crop selectivity assay. The series is classed as organism-based. The note with it: in vivo.

For `c1ccc(C2=NOCc3ccccc32)cc1`, the Activity in series [1] turned out to be 20%; in [2] it was 0%.

With `Fc1cccc(C2=NOCc3ccccc32)c1`, the values for the Activity in series [1] and in [2] were 60% and 20%, respectively.

Regarding `Brc1cccc(C2=NOCc3ccccc32)c1`, the values for the Activity in series [1] and in series [2] were 100% and 80%, respectively.

Consider `Ic1cccc(C2=NOCc3ccccc32)c1`, for which the Activity in [1] and in series [2] was 60% throughout.

Regarding `Cc1cccc(C2=NOCc3ccccc32)c1`, the Activity in series [1] came out at 60%; in series [2] it was 40%.

Take `COc1cccc(C2=NOCc3ccccc32)c1`: the Activity in series [1] was 20%; in series [2], 0%.

On to `FC(F)(F)c1cccc(C2=NOCc3ccccc32)c1`, for which the figures for the Activity in series [1] and in series [2] were 90% and 70%, respectively.

Consider `Oc1cccc(C2=NOCc3ccccc32)c1`, for which the Activity in [1] and in [2] was 0% each time.

In the case of `O=[N+]([O-])c1cccc(C2=NOCc3ccccc32)c1`, the Activity amounted to 60% in [1] and 40% in series [2].

As to `N#Cc1cccc(C2=NOCc3ccccc32)c1`, the Activity in series [1] is reported as 40%; in [2] it was 20%.

On to `Clc1cccc(C2=NOCc3ccccc32)c1Cl`, for which the Activity in series [1] and in [2] was 0% throughout.

As for `Clc1ccc(C2=NOCc3ccccc32)cc1Cl`, the results for the Activity in series [1] and in [2] were 100% and 80%, respectively.

On to `Clc1cc(Cl)cc(C2=NOCc3ccccc32)c1`, for which the Activity in series [1] and in series [2] was 0% each time.

Regarding `Clc1ccc(Cl)c(C2=NOCc3ccccc32)c1`, the Activity in series [1] and in series [2] was 0% in each case.

For the compound `Fc1ccc(C2=NOCc3ccccc32)cc1Cl`, the Activity in [3] turned out to be 0%; in series [4], 0%; in [5], 80%; in series [6], 100%; in series [7], 100%; in series [8], 100%. Moreover, the Activity in series [9] came to 20%; in series [10], 20%; in series [11], 0%; in series [12], 90%; in [1], 100%; in series [13] it was 100%. Besides, the Activity in [2] came out at 100%.

With `Fc1cc(C2=NOCc3ccccc32)ccc1Cl`, the Activity in series [1] is 90%; in [2] it was 60%.

Regarding `Fc1ccc(C2=NOCc3ccccc32)cc1F`, the Activity in series [1] and in series [2] was 80% each time.

`Fc1ccc(C2=NOCc3ccccc32)cc1Br`: the Activity in series [1] and in [2] was 100% in each case.

On to `Fc1ccc(C2=NOCc3ccccc32)cc1C(F)(F)F`, for which the Activity in series [1] stood at 100%; in series [2] it was 90%.

For the compound `Fc1ccc2c(c1)C(c1ccc(F)c(Cl)c1)=NOC2`, the Activity in series [1] is 100%; in [2], 60%.

`Fc1ccc2c(c1)CON=C2c1ccc(F)c(Cl)c1`: the Activity turned out to be 100% in series [1] and 50% in series [2].

As to `Fc1ccc(C2=NOCc3c(F)cccc32)cc1Cl`, the Activity in series [1] is recorded as 100%; in series [2], 60%.

For `Fc1ccc(C2=NOCc3ccc(Cl)cc32)cc1Cl`, the Activity in series [1] was 100%; in series [2] it was 90%.

For the compound `Fc1ccc(C2=NOCc3cc(Cl)ccc32)cc1Cl`, the Activity is reported as 60% in series [1] and 0% in [2].

Take `Fc1ccc(C2=NOCc3c(Cl)cccc32)cc1Cl`: the Activity in series [1] and in series [2] was 0% in each case.

As for `Fc1ccc2c(c1)C(c1ccc(F)c(Br)c1)=NOC2`, the Activity in series [3] amounted to 0%; in [4] it was 0%; in series [5] it was 80%; in [6], 100%; in series [7], 60%; in series [8], 100%. In addition, the Activity in [9] stood at 0%; in [10], 20%; in series [11] it was 0%; in series [12], 100%; in series [1], 100%; in series [13] it was 80%. The Activity in series [2] worked out at 100%.

As to `Fc1ccc2c(c1)CON=C2c1ccc(F)c(Br)c1`, the Activity is reported as 100% in series [1] and 20% in series [2].

Turning to `Clc1ccccc1C1=NOCc2ccccc21`, the Activity in series [12], in series [1], in series [13] and in [2] was 0% throughout.

For the compound `Clc1cccc(C2=NOCc3ccccc32)c1`, the Activity in series [12] is 60%; in series [1] it was 100%; in series [13], 60%; in series [2], 90%.

In the case of `Clc1ccc(C2=NOCc3ccccc32)cc1`, the Activity in [12] is 20%; in [1] it was 20%; in series [13] it was 0%; in series [2], 40%.

On to `Clc1cc(C2=NOCc3ccccc32)ccn1`, for which the Activity in series [12] was 60%; in [1], 60%; in [13], 60%; in [2], 80%.

`Clc1ccc(C2=NOCc3ccccc32)s1`: the Activity is listed as 20% in [12], 40% in [1], 20% in series [13] and 20% in series [2].

`Cc1cc(C2=NOCc3ccccc32)no1`: the Activity in [12], in series [1], in series [13] and in series [2] was 0% throughout.

On to `Cc1cc(C2=NOCc3ccccc32)on1`, for which the Activity in [12], in series [1], in series [13] and in series [2] was 0% each time.

As to `Cn1ccnc1C1=NOCc2ccccc21`, the Activity in series [12], in series [1], in [13] and in series [2] was 0% throughout.

For the compound `CCCCCCCC(=O)Oc1c(I)cc(C#N)cc1I` [IOXYNIL OCTANOATE], the Activity in series [3] stood at 0%; in [4] it was 0%; in [14] it was 0%; in series [5], 100%; in series [6], 80%; in [7] it was 90%. Further, the Activity came to 80% in series [8]; 0% in series [9]; 0% in [10]; 20% in [11]; 100% in series [12]; 80% in [1]. The Activity in series [13] and in series [2] was 90% throughout.
